1 molecule from patent US10912767B2, “Anthracycline prodrugs and methods of making and using the same” (THE REGENTS OF THE UNIVERSITY OF COLORADO, priority 2015, dated 2021) can be followed below.

Series [1] can be described thus: Quantum yield of photocleavage, He-Cd laser 325 nm, HPLC. Conditions: 325 nm. Type of series: physicochemical. The protocol: Initially, measurement of the quantum yield of photodoxazolidine R═H was done in a fully-absorbing solution of photoactive drug in a solution of 90% dimethylacetamide (DMA), 10% water in a 1×1 cm quartz cuvette equipped with a small magnetic stir bar. A stock of photodoxazolidine in DMA was diluted in 9:1 DMA:H2O to a final concentration of 373 μM in a final volume of 3.380 mL. […] The cuvette was placed into the path of an Omnichrome He-Cd laser (single-window power: 10.75 mW at 325 nm using a Scientech laser power meter). The solution was mixed by the stir bar, which was agitated with a magnetic stir plate placed vertically next to the cuvette. Aliquots of 20 μL were removed at times between 0 and 62 min of irradiation and those aliquots were analyzed by HPLC (method 2) for the ratio of dox to photodoxazolidine. The quantum yield was calculated from the ratio of molecules of doxorubicin (dox) formed to photons absorbed.
To allow for better comparison between the quantum yield of photocleavage of photodoxazolidine with the quantum yield for azido-PEG-photodoxazolidine, the measurement was retaken with 50% acetonitrile in water as a solvent. […] Photodoxazolidine (in DMF) was diluted with 30 mL of 50% acetonitrile to a final concentration of 104 μM. The solution was confirmed to be fully absorbing by monitoring the laser power exiting the cell throughout the course of the experiment, which never deviated from 0 mW. As above, the contents of the cell were mixed with a small magnetic stir bar. Aliquots of 50 μL were removed at various times and analyzed as described above. The calculated quantum yield in this solvent system was identical to that measured from the […] system used above.
Concentration of azido-PEG-photodoxazolidine was determined via absorbance (λ=480 nm, ε=11500 M^−1 cm^−1). A sample ([…]) was dissolved in 1 mL of ACN and transferred to a cuvette. A 12.4 mW Omnichrome HeCd was used to irradiate the solution for 30 min at 325 nm. Aliquots of 10 μL were collected at different times and analyzed by HPLC to determine the % Dox in relation to that of azido-PEG-photodoxazolidine. In calculating quantum yield: power (without cuvette)=12.4 mW, (with cuvette)=10.7 mW, incident light=11.55 mW; energy=0.462 J, 7.55×1017 photons; t=40 sec when % Dox=9.2. Experiments were performed in triplicate.
Azido-PEG-photodoxazolidine was irradiated with a 12.4 mW monochromatic laser at 325 nm for 30 min. Aliquots were collected throughout to determine the amount of azido-PEG-photodoxazolidine in relation to released doxorubicin, which was quantified by HPLC. […] The average of triplicate quantum yield experiments was 0.025. This value is in the low end of the quantum yield range, yet is beneficial because it signifies that UV must be applied for longer durations prior to release of the cytotoxic agent. This makes administration of this photo-activated prodrug safer, and its synthesis more practical.

Series [2] is described as follows: Photolysis timecourses, near UV blacklight 350 nm, HPLC. It counts as physicochemical. The source says:
In order to investigate the photolysis of the drugs in a system amenable to cell culture use, a custom UV irradiation apparatus was constructed, consisting of 3 small blacklight fluorescent bulbs (Southern New England Ultraviolet Co., λmax=350 nm) set between two ring stands and suspended at a height of 11.5 cm. The bulbs' housing was reflective aluminum so as to direct as much UV irradiation as possible downward toward the plate. Upon installation in sterile cell culture hood, the power of the system was measured at approximately 6-7 mW using a Scientech laser power meter. Prior to experimentation, the hood and irradiation apparatus was sterilized with 254 nm germicidal UV irradiation overnight. Using this setup, 100 μM of 4,5-dimethoxy-2-nitrobenyl alcohol (DMNA), photodoxazolidine R═H, and glucose-PEG-photodoxazoldine were irradiated in individual wells of a 24-well plate. Initially, 50 μL of a DMSO stock was diluted with 950 μL of PBS and aliquots of 50 μL were removed at various times (0-180 min), mixing by pipetting each time. The timepoints were analyzed by HPLC (method 2) and plotted as fractional conversion versus time. […] Therefore, a second experiment was performed in which the PBS was replaced with 1:1 acetonitrile:water. With this system of 5% DMSO/47.5% acetonitrile/47.5% water, no visible precipitation was produced over the course of the reaction.
The measured quantum yield of 0.002 for photodoxazolidine R═H (above) was lower than expected, which raised the possibility that the presence of the anthraquinone ring complex in the prodrugs was inhibiting photocleavage by quenching the activated state. To test whether this, the irradiation kinetics of DMNA (4, 5-dimethoxy-2-nitrobenzyl alcohol) was compared against photodoxazolidine R═H, which contains the DMNA unit as the photoactivating group. Additionally, glucose-PEG-photodoxazoldine was included for comparison; a synthetic precursor to this compound, azido-PEG-photodoxazolidine, is suspected of having a quantum yield of 0.01-0.02, which is 5-10-fold larger than photodoxazolidine. Irradiation was performed in 24-well cell culture dishes using the cell culture irradiation system described above with the soft-glass high-pass filter. […] In both cases, photodoxazolidine was the slowest to produce dox from the irradiation. In line with its quantum yield, glucose-PEG-photodoxazolidine reacted 4-5-fold faster than photodoxazolidine. However, DMNA was by far the fastest to undergo photochemistry in this system, converting to product approximately 30-fold faster than photodoxazolidine.

Series [3] concerns MDA-MB-231 breast carcinoma cells. As to the kind of experiment: Tumor cell uptake by flow cytometry. Conditions: 500 nM, 30 min to 4 h, compared against doxorubicin. It counts as cell-based, human. The protocol:
Uptake of the drugs by the cells was measured by flow cytometry. The cells were incubated with 500 nM photodoxazolidine R═H, azido-PEG-photodoxazolidine, or doxorubicin dissolved in 1:1 PBS:serum-free media for between 30 min and 4 h, after which the drug was removed and the cells washed with cold PBS. Cells were trypsinized to a single-cell suspension, rinsed again in cold PBS, and stored on ice for analysis by flow cytometry, monitoring the presence of the anthraquinone fluorophore (channel FL2). Cell populations were gated for intact cells in the side-scatter/forward-scatter plot and 10,000 gated events were scored for each timepoint. The mean fluorescence of the population was compared to the mean fluorescence of 10,000 gated events for an untreated population and the fold increase over background was plotted versus time of drug incubation.
Using MDA-MB-231 breast carcinoma cells, the cellular uptake of photodoxazolidine and azido-PEG-photodoxazolidine was analyzed by flow cytometry and compared against the uptake of doxorubicin.

Series [4] in a line: Solubility observed in irradiation solvent. It counts as physicochemical. From the text: In order to investigate the photolysis of the drugs in a system amenable to cell culture use, a custom UV irradiation apparatus was constructed, consisting of 3 small blacklight fluorescent bulbs (Southern New England Ultraviolet Co., λmax=350 nm) set between two ring stands and suspended at a height of 11.5 cm. The bulbs' housing was reflective aluminum so as to direct as much UV irradiation as possible downward toward the plate. Upon installation in sterile cell culture hood, the power of the system was measured at approximately 6-7 mW using a Scientech laser power meter. Prior to experimentation, the hood and irradiation apparatus was sterilized with 254 nm germicidal UV irradiation overnight. Using this setup, 100 μM of 4,5-dimethoxy-2-nitrobenyl alcohol (DMNA), photodoxazolidine R═H, and glucose-PEG-photodoxazoldine were irradiated in individual wells of a 24-well plate. Initially, 50 μL of a DMSO stock was diluted with 950 μL of PBS and aliquots of 50 μL were removed at various times (0-180 min), mixing by pipetting each time. The timepoints were analyzed by HPLC (method 2) and plotted as fractional conversion versus time. […]
The measured quantum yield of 0.002 for photodoxazolidine R═H (above) was lower than expected, which raised the possibility that the presence of the anthraquinone ring complex in the prodrugs was inhibiting photocleavage by quenching the activated state. […]

As for `COc1cc(COC(=O)N2COC3C(C)OC(OC4CC(O)(C(=O)CO)Cc5c(O)c6c(c(O)c54)C(=O)c4c(OC)cccc4C6=O)CC32)c([N+](=O)[O-])cc1OC` (centres unmarked) [Photodoxazolidine], the quantum yield entry in series [1] (50% acetonitrile in water, vs first solvent system) is listed as “identical”; in series [1] (90% dimethylacetamide, 10% water), 0.002. Also, in series [2] (100 μM, 1:1 acetonitrile:water, near UV 350 nm), the “k in ACN: H2O, relative rate constant for photocleavage” value was determined as 0.0069 min⁻¹. For the same molecule, the “k in PBS, relative rate constant for photocleavage” value in series [2] (100 μM, PBS, near UV 350 nm) was 0.0026 min⁻¹. In addition, the “k in ACN: H2O, fold over photodoxazolidine” value in series [2] (1:1 acetonitrile:water) is listed as “(1.0)”. Besides, in series [2] (PBS), the “k in PBS, fold over photodoxazolidine” value is on record as “(1.0)”. The “cellular uptake (cellular fluorescence)” value in series [3] is on record as “rapid increase in cellular fluorescence”. Further, the “solubility in PBS” value in series [4] is listed as “poor solubility”.
